These results are taken from patent publication US20220275458A1, “PREDICTION OF CANCER THERAPY EFFICACY” (UNIVERSITY OF MASSACHUSETTS, priority 2019, published 2022).

Assay [1] concerns BRCA-RAD51 pathway proficient or deficient cell lines. The assay can be described thus: PARPi response of model cell systems (Table 4 summary). The format is cell-based. On the procedure: In the above tested model systems, HR or FP sometimes correlate with PARPi resistance whereas ssDNA gap suppression always correlates. Moreover, defects in HR or FP sometimes correlate with PARPi sensitivity whereas gaps always correlate.
(§1) Cells were seeded onto 96-well plates (500 cells per well, performed in triplicate for each experiment group) and incubated overnight. The next day, cells were treated with increasing doses of drugs indicated in corresponding figures and maintained in complete media for 5 to 7 days. Percentage survival was measured photometrically using a CellTiter-Glo 2.0 viability assay (Promega) in a microplate reader (Beckman Coulter DTX 880 Multimode Detector).

Assay [2] relates to RPE1 cells. The experiment in a line: Cell survival assays in Control, FANCJ K/O and BRCA1 K/O RPE1 cells. In kind it is cell-based, human. The note with it: for sensitivity at therapeutic range: 0.5 uM Olaparib. On the procedure:
as §1

Assay [3] has as its system RPE1 cells. The assay can be described thus: DNA fiber assay following olaparib treatment. In kind it is cell-based, human. The note with it: 10 μM olaparib, 2 h. The protocol:
Cells were labeled by sequential incorporation of two different nucleotide analogs, IdU and CldU, into nascent DNA strands for the indicated time and conditions. After nucleotide analogs were incorporated in vivo, the cells were collected, washed, spotted, and lysed on positively charged microscope slides by […] spreading buffer for 8 min at room temperature. For experiments with the ssDNA-specific endonuclease S1, after the CldU pulse, cells were treated with CSK100 buffer for 10 min at room temperature, then incubated with S1 nuclease buffer with or without 20 U/mL S1 nuclease (Invitrogen, 18001-016) for 30 min at 37 C. The cells were then scraped in PBS +0.1% BSA and centrifuged at 7,000 rpm for 5 min at 4 C. Cell pellets were resuspended at […] and lysed with lysis solution on slides. Individual DNA fibers were released and spread by tilting the slides at 45 degrees. After air-drying, fibers were fixed by 3:1 methanol/acetic acid at room temperature for 3 min. After air-drying again, fibers were rehydrated in PBS, denatured with 2.5 M HCl for 30 min, washed with PBS, and blocked with blocking buffer for 1 hr. […] Finally, visualization of green and/or red signals by fluorescence microscopy (Axioplan 2 imaging, Zeiss) provided information about the active replication directionality at the single-molecule level.

In another assay the test system is PEO1 and C4-2 cells. The assay can be described thus: Cell survival assay, cisplatin, PEO1 and C4-2. The format is cell-based, human. On the procedure: Cells were plated at 500 cells per well in the center wells of a 96 well plate in 200 ul volume and allowed to adhere for 36 h. Subsequently, drugs were added in a 100 ul volume and the cells were incubated for 10 days. CellTiter-Glo 2.0 (Promega) was used to quantify cell number by ATP. To prevent evaporation, all blank wells in the 96 well plate were filled with media, and each plate was placed in a humid chamber with PBS.

The next assay deals with BR5-R1 cells. The experiment in a line: Cell survival assays for T2, BR5 and BR5-R1 cells. In kind it is cell-based, mouse. To be noted: BR5-R1 PARPi-resistant cells; VE-821 1 μM co-incubated with olaparib. On the procedure: To determine whether gap suppression mechanisms occur in models of de novo PARPi resistance, cell lines were analyzed that were initially sensitive to PARPi and then had gained PARPi resistance while propagated in tissue culture^41. BRCA1-deficient mouse ovarian tumor cell line, BR5, was utilized and its derived PARPi-resistant cell line, BR5-R1^41. PARPi sensitivity of BR5 was confirmed as compared to BR5-R1 and BRCA1 proficient T2 cells. See, FIG. 41A. […] See, FIG. 41B. […] See, FIGS. 41B and 41C. Thus, BR5-R1 cells resemble FANCJ deficient cells, in that they both lack PARPi induced-sensitivity, lengthening, or gaps, but remain sensitive to cisplatin. See, FIG. 42A. […] See, FIGS. 41A, 41C and 42A.
as §1

The test system of assay [4] is TLS cancer vs non-TLS cancer or non-cancer cells. The experiment in a line: Combined assay: EdU replication and ssDNA gaps (TLS specificity). In kind it is cell-based, human. The note with it: U2OS cell lines; HU plus ATR inhibitor.
Method: A combination assay was performed in a high-throughput manner using 384-well plates. This assay served as a rapid and efficient method to determine the anti-TLS activity of the lead compounds and novel analogues. […] Specifically, the assay identifies compounds that cause TLS cells, but not non-TLS cells, to lose replication (green) and gain ssDNA gaps (red). […] Colors can be identified using a high content and high throughput imaging camera. […] Moreover, red and green fluorescent readouts are readable/quantifiable from full well images at 20×. Several positive and negative controls that may be employed in parallel with the screen to induce gaps or suppress gaps. In particular, under these assay conditions replication with gaps are induced when ATR is inhibited.
A combined assay can be performed to first analyze the ability of these TLSi's to inhibit global replication with concomitant induction of ssDNA in TLS cancer vs non-TLS cancer or non-cancer cells. Second, a colony formation assays in each of these models to determine whether the TLSi's selectively reduce colony formation in TLS cancer cells.
Immunofluorescence was performed as described previously^27. Cells were grown on coverslips in 10 μM BrdU for 48 h before the treatment with drugs. Cells were then treated with the aforementioned drugs for 2 h. […]
The subject of assay [5] is pro-TLS U2OS and HCT15 cells. The assay can be described thus: Colony formation assay with ATRi or Wee1i alone or with TLSi. In kind it is cell-based, human. To be noted: for clonogenic survival: pro-TLS U2OS cells compared to non-TLS dependent cells; for response in colony formation assay: pro-TLS cancer cell line HCT15. The protocol:
Currently, there is a major clinical effort to combat cancer by induction of replication stress through inhibition of ATR or the mitotic checkpoint kinase, Wee1 (Bukhari et al., 2019). Given that these drugs induce replication gaps, it was considered that if gaps were the sensitizing lesion, TLS could also interfere with their effectiveness. […] See, FIG. 55A, 5B and FIG. 56A-D; (Bukhari et al., 2019).
For colony formation assays either 500 or 1000 cells per well were seeded into 6 well plates and were treated continuously with or without TLSi. Once the colonies had developed, the cells were fixed with 90% methanol and then stained with 0.05% (w/v) crystal violet solution. Plates were then imaged using ChemiDocTM Touch Imaging System (BioRad).

The next assay relates to U2OS cells. The experiment in a line: Electron microscopy of reversed replication forks. In kind it is cell-based, human. To be noted: 4 mM HU. The protocol:
To investigate the effect of TLS on the fine replication fork architecture, psoralen cross-linking coupled to reversed fork intermediates were detected with electron microscopy (EM) with or without elevated TLS. Following 4 mM HU treatment, a substantial fraction of reversed replication forks were found in FANCJ^WT and empty vector U2OS cells (˜26% and 23%, respectively). […] See, FIG. 6D.
For the EM analysis of replication intermediates, 5-10×10^6 U2OS cells treated with or without 4 mM HU were collected and genomic DNA was cross-linked by two rounds of incubation in 10 μg ml-1 4,5,8-trimethylpsoralen (Sigma-Aldrich) and 3 min of irradiation with 366 nm UV light on a precooled metal block10,26. Cells were lysed and genomic DNA was isolated from the nuclei by proteinase K (Roche) digestion and phenol-chloroform extraction. DNA was purified by isopropanol precipitation, digested with PvuII HF in the proper buffer for 3-5 h at 37° C. and replication intermediates were enriched on a benzoylated naphthoylated DEAE-cellulose (Sigma-Aldrich) column. EM samples were prepared by spreading the DNA on carbon-coated grids in the presence of benzyl-dimethyl-alkylammonium chloride and visualized by platinum rotary shadowing. Images were acquired on a transmission electron microscope (JEOL 1200 EX) with side-mounted camera (AMTXR41 supported by AMT software v601) and analyzed with ImageJ (National Institutes of Health). EM analysis allows distinguishing duplex DNA—which is expected to appear as a 10 nm thick fiber, after the platinum/carbon coating step necessary for EM visualization—from ssDNA, which has a reduced thickness of 5-7 nm. The criteria used for the unequivocal assignment of reversed forks include the presence of a rhomboid structure at the junction itself in order to provide a clear indication that the junction is opened up and that the four-way junction structure is not simply the result of the occasional crossing of two DNA molecules^25. […]

Structures are written as SMILES.

As to `O=C(c1cc(Cc2n[nH]c(=O)c3ccccc23)ccc1F)N1CCN(C(=O)C2CC2)CC1` [olaparib], the PARPi response entry is “sensitive” in assay [1] (BRCA1/2 deficient); “resistant” in assay [1] (BRCA1/2 proficient); “resistant” in assay [1] (BRCA1 and 53BP1 deficient); “resistant” in assay [1] (BRCA2 S3291A mutant); “resistant” in assay [1] (BRCA2 and CHD4 deficient); “resistant” in assay [1] (FANCJ deficient). Moreover, the PARPi response result in assay [1] (RAD51 T131P mutant) was “sensitive”; in assay [1] (RAD51 T131P mutant and RADX deficient), “sensitive”. Further, the “sensitivity at therapeutic range” value in the assay on RPE1 cells [2] (BRCA1 K/O RPE cells) was “sensitive”; in the assay with RPE1 cells [2] (control and FANCJ K/O cells) it was “not sensitive”. The “sensitivity in cell survival assay” value with RPE1 cells [2] (BRCA1 K/O RPE1 cells, olaparib) is recorded as “sensitive”; with RPE1 cells [2] (FANCJ K/O RPE1 cells, olaparib), “not sensitize”. In the assay with RPE1 cells [3], the replication tract length result is listed as “lengthens replication tracts”.

On to `N.N.[Cl][Pt][Cl]` [cisplatin], for which the cisplatin response entry is “resistant” with PEO1 and C4-2 cells (C4-2 cells, BRCA2 proficient PEO1 reversion line); “hypersensitive” in the assay with PEO1 and C4-2 cells (PEO1 cells, truncated BRCA2). In addition, the “sensitivity in cell survival assay” value in the assay with RPE1 cells [2] (BRCA1 K/O RPE1 cells, cisplatin) is listed as “sensitive”; in the assay with RPE1 cells [2] (FANCJ K/O RPE1 cells, cisplatin), “sensitive”.

With `CC[C@@]1(O)C(=O)OCc2c1cc1n(c2=O)Cc2cc3ccccc3nc2-1` [CPT, camptothecin], the “sensitivity in cell survival assay” value with RPE1 cells [2] (FANCJ K/O RPE1 cells, CPT) is given as “sensitive”.

Regarding `CS(=O)(=O)c1ccc(-c2cnc(N)c(C(=O)Nc3ccccc3)n2)cc1` [VE-821], the “effect on PARPi sensitivity” value in the assay with BR5-R1 cells is “re-established PARPi sensitivity”. Besides, in assay [4], the “replication and ssDNA gaps during stress” value was “promoted replication during stress, but with significant ssDNA gap induction”. Besides, in assay [5], the clonogenic survival entry is “greater clonogenic survival” and the “response in colony formation assay” value was “resistance”.

Take `NC(=O)NO` [HU, hydroxyurea]: the “frequency of fork reversal events” value with U2OS cells (FANCJ S990A U2OS cells) was roughly 11%. Further, the “fraction of reversed replication forks” value with U2OS cells (FANCJ WT U2OS cells) is listed as roughly 26%; in the assay on U2OS cells (empty vector U2OS cells) it was 23%.

For `C=CCn1c(=O)c2cnc(Nc3ccc(N4CCN(C)CC4)cc3)nc2n1-c1cccc(C(C)(C)O)n1` [MK1775], in assay [5], the clonogenic survival entry is on record as “greater clonogenic survival” and the “response in colony formation assay” value is recorded as “resistance”.
